Results as given in patent US9790211B2, “5-amino-quinoline-8-carboxamide derivatives as 5-HT4 receptor agonists” (SUVEN LIFE SCIENCES LIMITED, priority 2013, dated 2017).

How the values were obtained:
[1] = tested on: Aβ1-40; test: Effect on CSF Aβ1-40 level (ELISA); format: in vivo, Male Sprague Dawley Rat; conditions: p.o., at two hour
Method: The control group of male rats received a vehicle (reagent grade water) per orally by gavage at a dose volume of 10 mL/kg. The treated groups (6 rat per group) received a single dose of test compound (different doses) or DAPT (50.0 mg/kg). Two hour post dose of vehicle or test compounds, rats were anesthetized with isoflurane and CSF was collected from Cisterna magna using 0.5 mL syringes by utilizing stereotaxic frame. The CSF samples were frozen in liquid nitrogen and stored at −80° C. until ELISA was performed.
• 1. CSF samples were thawed to RT and diluted with Tris Buffer Saline containing protease inhibitors at 1:10 ratio 115:150 μL (15 μL CSI+135 μL TBS. • 2. To this diluted CSF samples 0.15 mL of EIA buffer (1:1 ratio) was added. These diluted samples were subjected for Aβ1-40 level measurement by ELISA. Measurement of Aβ1-40 by ELISA Kit:
To investigate the role of an acute treatment of test compound on Aβ1-40 levels, expression of this protein in CSF was measured in treated and untreated rat by ELISA assay. The entire procedure was followed as per ELISA kit manual (Mouse/Rat Amyloid-Aβ1-40 ELISA, Cat No: 27721, IBL International, Hamburg, Germany).
Statistical analysis was performed using the Graph Pad Prism (Version 4). Data are Mean±SD of Aβ1-40 levels expressed as percentage of control values (rat which received regent grade water). Values were compared between the different groups by using unpaired t test. The significance level was set at *p<0.05; **p<0.01; ***p<0.001.

[2] = tested on: sAPPα; test: Estimation of mice brain cortical sAPPα levels (ELISA); format: in vivo; conditions: s.c., 60 minutes post treatment
Method: The control group of mice received sterile water for injection subcutaneously (s.c.). […] Mice were sacrificed 60 minutes after the drug injection by cervical dislocation, the brains were quickly isolated and the cortex was dissected at −20° C. The cortex was immediately kept on a dry ice and weighed before being stored at −80° C. until Enzyme-linked immunosorbent assay (ELISA) was performed. • 1. Brain tissues were thawed and Tris Buffer Saline containing protease inhibitors (TBS, 4 times by volume) added (0.8 mL/200 mg tissues). • 2. Brain tissue samples were homogenized using glass-Teflon homogenizer at 10 strokes. The resulting homogenates were centrifuged at 15,000 rpm at 4° C. for 60 minutes. • 3. The supernatant was discarded and to the precipitate, 4 times volume (0.8 mL/200 mg tissues) of TBS was added. Again homogenized followed by centrifugation at 15,000 rpm 4° C. for 30 minutes. • 4. From the above centrifuged mixture the supernatant was discarded and 10 times volume of 6M Guanidine-HCl in 50 mM Tris buffer pH: 7.6 (500 μL/50 mg tissues) was added. The resulting solution was sonicated for 5 seconds, 4 times. • 5. Resulting mixture was incubated at the RT for 30 minutes, followed by centrifugation at 15,000 rpm, 4° C. for 30 minutes. From this 5 μL of supernatant solution was taken and diluted with 155 μL of EIA buffer (dilution factor 32). Measurement of sAPPα by ELISA Kit: To investigate the role of an acute treatment of test compound on sAPPα levels, we measured the expression of this protein in homogenates from the cortex of treated and untreated mice by ELISA assay. The entire procedure was followed as described in the ELISA kit manual (Mouse/Rat sAPPα ELISA, Catalog Number: JP27415, […], Hamburg, Germany). Statistical analyses were performed using the Graph Pad Prism (Version 4). Data are Mean±SD of sAPPa levels expressed as percentage of control values (mice which received water for injection). Values were compared between the different groups by using unpaired t test. The significance level was set at *p<0.05; […]; ***<0.001.

[3] = tested on: acetylcholine levels in ventral hippocampus; test: Modulation of acetylcholine from the ventral hippocampus (microdialysis); format: in vivo, male Wistar rats; conditions: p.o.
Text: Male Wistar rats (240-300 gram body weights) were stereotaxically implanted with a microdialysis guide cannula in the ventral hippocampus (AP: −5.2 mm, ML: +5.0 mm, DV: −3.8 mm). Co-ordinates were taken according to Paxinos and Watson (2007) with reference points taken from bregma and vertical from the skull. The rats were allowed to recover individually for five days in a round bottom Plexiglas bowl with free access to feed and water.
One day prior to the microdialysis experiment, rats were connected to a dual quartz lined two-channel liquid swivel (Instech, UK) on a counter balance lever arm, which allowed unrestricted movements of the animal. […]
On the day of study, probe was perfused at a constant flow rate of […] with artificial cerebrospinal fluid (aCSF; NaCl 147 mM, KCl 3.0 mM, MgCl2 1.0 mM, CaCl2. 2H2O 1.3 mM, NaH2PO4.2H2O 0.2 mM and Na2HPO4. 7H2O 1.0 mM, pH 7.2). […] Dialysates were stored below −70° C. until quantitation of acetylcholine.
Acetylcholine in dialysate was quantified in the calibration range of 0.103 nmol-103.497 nmol using LC-MS/MS method.
All microdialysis data were plotted as percent change from mean dialysate basal concentrations with 100% defined as the average of five predose values. The AUC was calculated by trapezoidal rule using WinNonlin (5.0.1 version. Pharsight Corp. CA). […]

SMILES	decrease in the rat CSF Aβ1-40 levels ([1]; 0.03 mg/kg)	decrease in the rat CSF Aβ1-40 levels ([1]; 0.1 mg/kg)	decrease in the rat CSF Aβ1-40 levels ([1]; 0.3 mg/kg)	decrease in the rat CSF Aβ1-40 levels ([1]; 1.0 mg/kg)	decrease in the rat CSF Aβ1-40 levels ([1]; 3.0 mg/kg)	increase in the mice brain cortical sAPPα levels ([2]; 0.3 mg/kg)	increase in the mice brain cortical sAPPα levels ([2]; 1.0 mg/kg)	increase in the mice brain cortical sAPPα levels ([2]; 3.0 mg/kg)	increase in the mice brain cortical sAPPα levels ([2]; 10.0 mg/kg)	Area under the curve of acetylcholine change, ventral hippocampus (in words) ([3]; 10.0 mg/kg, vs vehicle, p<0.01)	acetylcholine levels from the ventral hippocampus (in words) ([3]; 3.0 and 10.0 mg/kg, male Wistar rats)
Nc1c(Cl)cc(C(=O)NCC2CCN(CC3CCOCC3)CC2)c2ncccc12.O=C(O)/C=C/C(=O)O [Example 1, 5-Amino-6-chloro-N-{[1-(tetrahydro-2H-pyran-4-ylmethyl)-4-piperidinyl]methyl}quinoline-8-carboxamide hemifumarate]	27%	24%	40%	22%	29%	–	–	–	–	–	–
Nc1c(Cl)cc(C(=O)NCC2CCN(CC3CCOCC3)CC2)c2ncccc12.O=C(O)C(O)C(O)C(=O)O [Example 13, 5-Amino-6-chloro-N-{[1-(tetrahydro-2H-pyran-4-ylmethyl)-4-piperidinyl]methyl} quinoline-8-carboxamide L(+)-tartarate]	–	–	–	–	–	39%	41%	46%	66%	significant	dose dependent increase
